Measured values as given in BindingDB's records for doi:10.1021/acs.jmedchem.2c01229 (University of Siena, 2023).

Assay: Inhibition of SARS-CoV-1 RdRp-mediated viral replication

With `CN(C)CCCSc1ccccc1NC(=O)/C=C/c1ccccc1` [CINANSERIN] the IC50 was 34 µM.
